Starred links: 1 amine or outer side, 2 acyl side, 3 side chain; linkers in the order of their positions; H or OH if unused. Positions of bridges follow the written chain, without caps; N, C: chain ends. Non-standard residues stand in square brackets, D forms with d. Residues, ends and D or L forms follow the SMILES beside them. *: point of attachment. X1 = NC(=O)C[C@H](N[*:1])c1cn([C@@H](Cc2ccccc2)C(=O)[*:2])nn1; DOTA = O=C(O)CN1CCN(CC(=O)O)CCN(CC(=O)*)CCN(CC(=O)O)CC1; NMeF = CN[C@@H](Cc1ccccc1)C(=O)O

Results on 7 molecules are retold here after article PMC11602245 (Journal of Peptide Science, 2024).

The nature of one data set: human plasma. To be noted: 37°C, up to 24 h.
The conditions of data set [1]: cited from earlier work.
A short description of data set [2]: Metabolic stability in human plasma. Type of data set: in vitro ADME. The protocol:
The human plasma used in the in vitro stability assays was purchased from Sigma‐Aldrich (H4522‐20ML).
The stability assays were conducted by incubating the ^111In‐labeled peptide conjugates in human plasma at 37°C for 24 h (n = 2). The detailed description of the procedure is described elsewhere.[13]
In order to assess the proteolytic stability of the new radiolabeled peptide conjugates, in vitro stability studies were conducted in blood plasma. [^111In]In‐XG1 and [^111In]In‐XG1‐A/B/C were incubated in human plasma at 37°C, and samples were taken after 24 h for their analysis by γ‐HPLC (Figure 3). […] This hypothesis is also supported by previously reported data that identified Thr^10‐Phe^11 as one of the main cleavage sites of the native SST‐14.[15] […] To better understand the degradation of [^111In]In‐XG1‐C over time, the stability was also determined after 4 h incubation in plasma (Figure 3D), after which only 27% of the original radiopeptide remained intact. […] We hypothesize that the incorporation of the methylated amino acid (N‐Me‐Phe^11) leads to a conformation of the peptide that facilitates the accessibility of amide bonds to proteases. Similar observations have been reported for other triazolo‐peptidomimetics.[11] […] For example, one of the main enzymes involved in the degradation of the native SST‐14 is neprilysin (NEP), a membrane‐bound metalloprotease abundantly expressed in various tissues.[21], [22] The role of this enzyme in the degradation of peptides cannot be contemplated with in vitro plasma stability assays but would have to be assessed in vivo (e.g., mice).[23]

Data set [3] deals with T1, SST2R‐overexpressing AR42J cells (Rattus norvegicus, UniProt P30680).
T1 construct: incubating the ^111In‐labeled peptide conjugates with SST2R‐overexpressing AR42J cells in six well plates; host or cells: AR42J cells
T1 sequence (P30680 whole entry): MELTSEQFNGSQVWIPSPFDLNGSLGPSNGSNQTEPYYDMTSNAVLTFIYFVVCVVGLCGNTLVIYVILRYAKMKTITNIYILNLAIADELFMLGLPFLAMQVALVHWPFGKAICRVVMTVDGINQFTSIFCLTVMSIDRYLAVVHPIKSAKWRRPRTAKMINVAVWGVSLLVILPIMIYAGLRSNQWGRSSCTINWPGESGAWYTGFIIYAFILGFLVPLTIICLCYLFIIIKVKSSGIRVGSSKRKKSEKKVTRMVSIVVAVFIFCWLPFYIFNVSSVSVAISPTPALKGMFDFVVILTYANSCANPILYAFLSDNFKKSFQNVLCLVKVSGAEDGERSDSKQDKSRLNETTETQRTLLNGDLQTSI
The data set can be described thus: Cell binding and internalization studies. To be noted: after 2 h, corresponds to the determined unspecific binding (blocking experiments). Type of data set: cell-based. The protocol: The AR42J cell line was purchased from the American Type Culture Collection (ATCC).
The cell binding and internalization assays were performed by incubating the ^111In‐labeled peptide conjugates with SST2R‐overexpressing AR42J cells in six well plates as previously described (n = 2–3 in triplicates).[13]
The binding of radiolabeled somatostatin derivatives to multiple SSTRs is of high interest because it allows to address a wide range of cancers with distinctive SSTR‐subtype expression patterns.[24] Yet, SST2R is of major medical importance because it is over‐expressed or co‐expressed by most cancer types (e.g., NETs).[25] Thus, we first focused on SST2R by conducting cell binding and internalization experiments with the SST2R‐expressing cell line AR42J. In order to determine the specificity of the binding and internalization of the radiolabeled peptides, the octapeptide TATE (DPhe^1‐cycle(Cys^2‐Phe^3‐DTrp^4‐Lys^5‐Thr^6‐Cys^7)Thr^8) was used in excess for blocking experiments. […] These values are in accordance with previously reported data.[13] […] From the total applied activity, <1% was found at the cell membrane and internalized, which corresponds to the determined unspecific binding (blocking experiments). See Figure S9 for the results of the binding and internalization studies. […]

“[DOTA,Asn^5‐Ψ[Tz]‐Phe^6,DTrp^8,β‐Phe^11]SST‐14”: the not cleaved entry in “human plasma” is “more than 97% of intact peptide after 24 h”.
For “Ala^1 Gly^2 Cys^3 Lys^4 Asn^5 Phe^6 Phe^7 DTrp^8 Lys^9 Thr^10 Phe^11 Thr^12 Ser^13 Cys^14”, in data set [1], the cleaved bond entry is recorded as “Thr10-Phe11, major”.
By fraction remaining is commonly meant what is left of the initial amount, in per cent. The low end stands for a greater loss, the high end for greater stability. In the case of `C[C@H](NC(=O)CN1CCN(CC(=O)O)CCN(CC(=O)O)CCN(CC(=O)O)CC1)C(=O)NCC(=O)N[C@H]1CSSC[C@@H](C(=O)O)NC(=O)[C@H](CO)NC(=O)[C@H]([C@@H](C)O)NC(=O)[C@H](Cc2ccccc2)NC[C@H]([C@@H](C)O)NC(=O)[C@H](CCCCN)NC(=O)[C@@H](Cc2c[nH]c3ccccc23)NC(=O)[C@H](Cc2ccccc2)NC(=O)[C@H](Cc2ccccc2)n2cc(nn2)[C@H](CC(N)=O)NC(=O)[C@H](CCCCN)NC1=O` [[^111In]In‐XG1‐B, [DOTA,Asn^5‐Ψ[Tz]‐Phe^6,DTrp^8,Thr^10‐Ψ[NH]‐Phe^11]SST‐14, metal not drawn], in data set [2] (human, plasma), the share remaining at 24 h is more than 97%.
Turning to `C[C@H](NC(=O)CN1CCN(CC(=O)O)CCN(CC(=O)O)CCN(CC(=O)O)CC1)C(=O)NCC(=O)N[C@H]1CSSC[C@@H](C(=O)O)NC(=O)[C@H](CO)NC(=O)[C@H]([C@@H](C)O)NC(=O)[C@H](Cc2ccccc2)NC(=O)[C@H]([C@@H](C)O)NC(=O)[C@H](CCCCN)NC(=O)[C@@H](Cc2c[nH]c3ccccc23)NC(=O)[C@H](Cc2ccccc2)NC(=O)[C@H](Cc2ccccc2)n2cc(nn2)[C@H](CC(N)=O)NC(=O)[C@H](CCCCN)NC1=O` [[^111In]In‐XG1, [DOTA,Asn^5‐Ψ[Tz]‐Phe^6,DTrp^8]SST‐14, metal not drawn] ({DOTA}-AGCK[X1]F[dW]KTFTSC-OH; disulfide 3-13), in data set [2], the “major radiometabolite at rt = 6.4 min” value is given as 35.3%. The same molecule registered a share remaining at 24 h in data set [2] (human, plasma) of 56%.
With “[DOTA,Asn^5‐Ψ[Tz]‐Phe^6,DTrp^8,β‐Phe^11]SST‐14 [[^111In]In‐XG1‐A]”, the “total applied activity found at the cell membrane and internalized” value in data set [3] is on record as less than 1%.
With “[DOTA,Asn^5‐Ψ[Tz]‐Phe^6,DTrp^8,Thr^10‐Ψ[NH]‐Phe^11]SST‐14”, the not cleaved entry in “human plasma” was “more than 97% of intact peptide after 24 h”.
Molecule `C[C@H](NC(=O)CN1CCN(CC(=O)O)CCN(CC(=O)O)CCN(CC(=O)O)CC1)C(=O)NCC(=O)N[C@H]1CSSC[C@@H](C(=O)O)NC(=O)[C@H](CO)NC(=O)[C@H]([C@@H](C)O)NC(=O)[C@H](Cc2ccccc2)N(C)C(=O)[C@H]([C@@H](C)O)NC(=O)[C@H](CCCCN)NC(=O)[C@@H](Cc2c[nH]c3ccccc23)NC(=O)[C@H](Cc2ccccc2)NC(=O)[C@H](Cc2ccccc2)n2cc(nn2)[C@H](CC(N)=O)NC(=O)[C@H](CCCCN)NC1=O` [[^111In]In‐XG1‐C, [DOTA,Asn^5‐Ψ[Tz]‐Phe^6,DTrp^8,N‐Me‐Phe^11]SST‐14, metal not drawn] ({DOTA}-AGCK[X1]F[dW]KT[NMeF]TSC-OH; disulfide 3-13) showed a fraction remaining at 4 h in data set [2] (human, plasma) of 27%.
